Source: patent US20250059164A1, “IRAK DEGRADERS AND USES THEREOF” (Kymera Therapeutics, Inc., priority 2023, published 2025)

Experiments:
[1] = target: T1, IRAK4 (Homo sapiens, UniProt Q9NWZ3); test: IRAK4 MSD degradation in OCI-LY10; type: cell-based; details: OCI-LY10 cells, 24 hrs, Meso Scale Discovery
T1 construct: endogenous in cells; host or cells: OCI-LY10
T1 sequence (Q9NWZ3 1-460): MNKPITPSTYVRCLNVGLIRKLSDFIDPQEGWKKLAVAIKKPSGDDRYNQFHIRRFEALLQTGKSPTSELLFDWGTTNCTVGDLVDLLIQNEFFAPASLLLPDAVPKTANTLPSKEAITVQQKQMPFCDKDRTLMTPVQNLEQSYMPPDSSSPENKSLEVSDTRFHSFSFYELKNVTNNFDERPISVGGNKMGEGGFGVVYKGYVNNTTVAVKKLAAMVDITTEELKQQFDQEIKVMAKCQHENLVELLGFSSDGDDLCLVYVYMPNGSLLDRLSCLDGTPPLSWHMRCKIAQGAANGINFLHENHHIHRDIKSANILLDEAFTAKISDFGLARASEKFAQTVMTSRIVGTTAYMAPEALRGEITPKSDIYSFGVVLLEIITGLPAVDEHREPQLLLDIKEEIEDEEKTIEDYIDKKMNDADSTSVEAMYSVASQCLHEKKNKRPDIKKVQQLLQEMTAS
Outline: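 OCI-LY10 cells treated 4 to 24 hours at 37° C. with 8-dose 1:3 series, top 1 to 10 μM. IRAK4 in lysates quantified by MSD sandwich immunoassay (mouse capture, rabbit detection, SULFO-TAG anti-rabbit). DC50 from three-parameter logistic fit.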

[2] = Rodent pharmacokinetics (rat PK); type: in vivo; details: po, dosed intravenously or orally by gavage, plasma, read-out: F % (bioavailability)
Outline: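 Rats were dosed IV or by oral gavage, with jugular blood taken predose and at 5 min (IV only), 15, 30 min and 1, 2, 4, 8, 24 h. Plasma was separated by centrifugation at 4 °C. Oral bioavailability (F %) is coded A (≥5%) or B (≤5%).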

Structure (SMILES) | DC50 [1] [nM] | bioavailability [2] [%]
Cn1c(=O)n(C2CCC(=O)NC2=O)c2cccc([C@@H]3CCN(C[C@H]4CC[C@H](c5cn6cc(NC(=O)c7cccc(C(F)(F)F)n7)ccc6n5)CC4)C[C@H]3F)c21 (some centres unmarked) [I-262] | < 10 | ≤ 5
Cn1c(=O)n(C2CCC(=O)NC2=O)c2cccc([C@@H]3CCN(C[C@H]4CC[C@H](c5cn6cc(NC(=O)c7cccc(C(F)(F)F)n7)c(C(C)(C)O)cc6n5)CC4)C[C@H]3F)c21 (some centres unmarked) [I-268] | < 10 | ≤ 5
Cn1c(=O)n(C2CCC(=O)NC2=O)c2cccc(N3CC(COC[C@H]4CC[C@H](n5cc6cc(NC(=O)c7cccc(C(F)(F)F)c7)ncc6n5)CC4)C3)c21 (some centres unmarked) [I-269] | > 200 | ≤ 5
COc1cc2nn([C@H]3CC[C@H](COCC4CN(c5cccc6c5n(C)c(=O)n6C5CCC(=O)NC5=O)C4)CC3)cc2cc1NC(=O)c1cncc(C#N)c1 (some centres unmarked) [I-270] | 10 to 100 | ≤ 5
COc1cc2nn([C@H]3CC[C@H](CN4CC[C@@H](c5cccc6c5n(C)c(=O)n6C5CCC(=O)NC5=O)[C@H](F)C4)CC3)cc2cc1NC(=O)c1cncc(C(F)F)c1 (some centres unmarked) [I-271] | < 10 | ≤ 5
Cc1cc2nn([C@H]3CC[C@H](CN4CC[C@@H](c5cccc6c5n(C)c(=O)n6C5CCC(=O)NC5=O)[C@H](F)C4)CC3)cc2cc1NC(=O)c1cncc(C#N)c1 (some centres unmarked) [I-272] | > 200 | ≤ 5
Cn1c(=O)n(C2CCC(=O)NC2=O)c2cccc([C@@H]3CCN(C[C@H]4CC[C@H](c5cn6cc(NC(=O)c7cccc(C(F)(F)F)c7)ccc6n5)CC4)C[C@H]3F)c21 (some centres unmarked) [I-274] | < 10 | ≤ 5
CC(C)Oc1cc2nn([C@H]3CC[C@H](CN4CC[C@@H](c5cccc6c5n(C)c(=O)n6C5CCC(=O)NC5=O)[C@H](F)C4)CC3)cc2cc1NC(=O)c1cncc(C#N)c1 (some centres unmarked) [I-275] | < 10 | ≤ 5
Cn1c(=O)n(C2CCC(=O)NC2=O)c2cccc([C@@H]3CCN(C[C@H]4CC[C@H](c5cn6cc(NC(=O)c7cccc(C(F)(F)F)c7)c(C(C)(C)O)cc6n5)CC4)C[C@H]3F)c21 (some centres unmarked) [I-276] | < 10 | ≤ 5
COc1cc2nc([C@H]3CC[C@H](CN4CC[C@@H](c5cccc6c5n(C)c(=O)n6C5CCC(=O)NC5=O)[C@H](F)C4)CC3)cn2cc1NC(=O)c1cccc(C(F)(F)F)c1 (some centres unmarked) [I-278] | < 10 | ≤ 5
COc1cc2nn([C@H]3CC[C@H](CN4CC[C@@H](c5cccc6c5n(C)c(=O)n6C5CCC(=O)NC5=O)[C@H](F)C4)CC3)cc2cc1C(=O)Nc1cncc(C(F)(F)F)c1 (some centres unmarked) [I-283] | < 10 | ≤ 5
COc1cc2nc([C@H]3CC[C@H](CN4CC[C@@H](c5cccc6c5n(C)c(=O)n6C5CCC(=O)NC5=O)[C@H](F)C4)CC3)oc2cc1NC(=O)c1cncc(C(F)(F)F)n1 (some centres unmarked) [I-284] | 10 to 100 | ≤ 5
Cc1cc2nn([C@H]3CC[C@H](CN4CC[C@@H](c5cccc6c5n(C)c(=O)n6C5CCC(=O)NC5=O)[C@H](F)C4)CC3)cc2cc1NC(=O)c1cncc(C(F)(F)F)n1 (some centres unmarked) [I-286] | < 10 | ≤ 5
Cn1c(=O)n(C2CCC(=O)NC2=O)c2cccc([C@@H]3CCN(C[C@H]4CC[C@H](c5nc6cc(C(C)(C)O)c(NC(=O)c7cncc(C(F)(F)F)n7)cc6o5)CC4)C[C@H]3F)c21 (some centres unmarked) [I-288] | < 10 | ≥ 5
COc1cc2nn([C@H]3CC[C@H](CN4CC[C@@H](c5cccc6c5n(C)c(=O)n6C5CCC(=O)NC5=O)[C@H](F)C4)CC3)cc2cc1C(=O)Nc1cncc(C(F)(F)F)n1 (some centres unmarked) [I-290] | < 10 | ≤ 5
Cn1c(=O)n(C2CCC(=O)NC2=O)c2cccc([C@@H]3CCN(C[C@H]4CC[C@H](n5cc6cc(NC(=O)c7cncc(C(F)(F)F)n7)c(F)cc6n5)CC4)C[C@H]3F)c21 (some centres unmarked) [I-296] | < 10 | ≤ 5

Structure (SMILES) | DC50 [1] [nM] | bioavailability [2] [%]
O=C1CCN(c2cc(C(=O)N3CCN(C[C@H]4CC[C@H](n5cc6cc(NC(=O)c7cncc(C(F)(F)F)n7)ccc6n5)CC4)CC3)ncc2Cl)C(=O)N1 [I-305] | > 200 | ≤ 5
Cc1cncc(C(=O)Nc2ccc3nn([C@H]4CC[C@H](CN5CC[C@@H](c6cccc7c6n(C)c(=O)n7C6CCC(=O)NC6=O)[C@H](F)C5)CC4)cc3c2)n1 (some centres unmarked) [I-307] | < 10 | ≤ 5
COc1cc2nc([C@H]3CC[C@H](CN4CC[C@@H](c5cccc6c5n(C)c(=O)n6C5CCC(=O)NC5=O)[C@H](F)C4)CC3)cn2cc1NC(=O)c1cncc(C(F)(F)F)n1 (some centres unmarked) [I-308] | < 10 | ≤ 5
Cc1cncc(C(=O)Nc2cc3cn([C@H]4CC[C@H](CN5CC[C@@H](c6cccc7c6n(C)c(=O)n7C6CCC(=O)NC6=O)[C@H](F)C5)CC4)nc3cn2)n1 (some centres unmarked) [I-310] | < 10 | ≤ 5
Cn1c(=O)n(C2CCC(=O)NC2=O)c2cccc([C@@H]3CCN(C[C@H]4CC[C@H](n5cc6cc(NC(=O)c7cncc(C8CC8)n7)ccc6n5)CC4)C[C@H]3F)c21 (some centres unmarked) [I-311] | < 10 | ≤ 5
Cc1nn(C2CCC(=O)NC2=O)c2cccc(N3CCC4(CCN(C[C@H]5CC[C@H](n6cc7cc(NC(=O)c8cncc(C#N)c8)c(C(C)(C)O)cc7n6)CC5)CC4(F)F)CC3)c12 (some centres unmarked) [I-312] | 10 to 100 | ≤ 5
Cn1c(=O)n(C2CCC(=O)NC2=O)c2cccc([C@@H]3CCN(C[C@H]4CC[C@H](n5cc6cc(NC(=O)c7cncc(C(F)F)n7)ncc6n5)CC4)C[C@H]3F)c21 (some centres unmarked) [I-321] | < 10 | ≤ 5
Cn1c(=O)n(C2CCC(=O)NC2=O)c2cccc([C@@H]3CCN(C[C@H]4CC[C@H](n5cc6cc(NC(=O)c7cncc(C(C)(C)C)n7)ncc6n5)CC4)C[C@H]3F)c21 (some centres unmarked) [I-322] | < 10 | ≤ 5
Cn1c(=O)n(C2CCC(=O)NC2=O)c2cccc([C@@H]3CCN(C[C@H]4CC[C@H](n5cc6cc(NC(=O)c7cncc(C(F)F)n7)ccc6n5)CC4)C[C@H]3F)c21 (some centres unmarked) [I-323] | < 10 | ≤ 5
Cn1c(=O)n(C2CCC(=O)NC2=O)c2cccc([C@@H]3CCN(C[C@H]4CC[C@H](n5cc6cc(NC(=O)c7cncc(C(C)(C)C)n7)ccc6n5)CC4)C[C@H]3F)c21 (some centres unmarked) [I-324] | < 10 | ≤ 5
Cn1c(=O)n(C2CCC(=O)NC2=O)c2cccc(N3CC4(CCN(C[C@H]5CC[C@H](n6cc7cc(NC(=O)c8cncc(C(F)(F)F)n8)c(C(C)(C)O)cc7n6)CC5)CC4(F)F)C3)c21 (some centres unmarked) [I-326] | < 10 | ≥ 5
Cn1c(=O)n(C2CCC(=O)NC2=O)c2cccc([C@@H]3CCN(C[C@H]4CC[C@H](n5cc6cc(NC(=O)c7cncc(OC(F)F)n7)ncc6n5)CC4)C[C@H]3F)c21 (some centres unmarked) [I-337] | < 10 | ≤ 5
Cn1c(=O)n(C2CCC(=O)NC2=O)c2cccc([C@@H]3CCN(C[C@H]4CC[C@H](n5cc6cc(NC(=O)c7cncc(C8CC8)n7)ncc6n5)CC4)C[C@H]3F)c21 (some centres unmarked) [I-338] | < 10 | ≤ 5
Cn1c(=O)n(C2CCC(=O)NC2=O)c2cccc([C@@H]3CCN(C[C@H]4CC[C@H](n5cc6cc(NC(=O)c7cncc(OC(F)F)n7)ccc6n5)CC4)C[C@H]3F)c21 (some centres unmarked) [I-339] | < 10 | ≤ 5
Cc1cncc(C(=O)Nc2cc3cn([C@H]4CC[C@H](CN5CCC6(CN(c7cccc8c7n(C)c(=O)n8C7CCC(=O)NC7=O)C6)C(F)(F)C5)CC4)nc3cc2C(C)(C)O)c1 (some centres unmarked) [I-342] | < 10 | ≤ 5
